Results on ten compounds are retold here after patent publication US8765705B2, “Oligonucleotides inhibiting cellular migration” (Centre National de la Recherche Scientifique, priority 2009, dated 2014).

In series [1] the test system is C4-2 cells. Briefly: Migration assay, modified Boyden chamber, C4-2 cells. The format is cell-based, human. As to conditions: siRNA-transfected cells, towards fresh medium. How it is done: The cell migration capacity can be measured in vitro using a modified Boyden Chamber. Boyden Chamber consists of two compartments separated by a permeable membrane. Cells are placed in the upper chamber and the chemotactic factors in the lower chamber. Cells migrating through the membrane are counted.
The migration capacity was measured using a modified Boyden Chamber. Cells (40,000) were seeded in RPMI 1% FBS in the upper part of a cell culture-chamber-insert system separated from the lower chamber by a 8 μm PET membrane (BD Biosciences, Le Pont de Claix, France). RPMI 10% FBS, or conditioned medium was added in the lower compartment. Eighteen hours later, non migrating cells in the upper compartment were scrapped off using a cotton swab. Cells on the lower side of the membrane were fixed with methanol at −20° C. and stained with Hoechst 33258 (Sigma-Aldrich, Saint-Quentin Fallavier, France). Membranes were then excised, mounted on a glass side with Glycergel (DAKO) and cells counted.

Series [2] has as its system TSP1 mRNA. Kind of series: TSP1 mRNA level in C4-2 cells, real-time RT-PCR normalized to cyclophilin A. The format is cell-based, human. The procedure: (§1) LNCaP and C4-2 cells were grown in RMPI containing 10% fetal calf serum, PC-3 cells in DMEM containing 10% fetal calf serum. The Hiperfect reagent (Qiagen, Courtaboeuf, France) was used to transfect cells in 24 wells plates with the indicated siRNAs (10 nM) as recommended by the manufacturer. A metabolic activity assay (WST1, Roche Diagnostics, Meylan France) was used to measure cell proliferation. To mimic hypoxia, cells were grown in the presence of 300 μM cobalt chloride for 48 h. For hypoxic conditions, cells were cultured at 37° C. with 5% CO2, 94% N2 and 1% O2 in a hypoxic incubator (Binder GmbH, Tuttligen, France).
(§2) Total RNA was isolated using TRIzol reagent (Invitrogen, Cergy Pontoise, France). RNA were retrotranscribed using a High capacity cDNA Reverse Transcription Kit (Applied Biosystems, Courtaboeuf, France). cDNA was quantified by real time PCR using the Power SYBR® Green PCR Master Mix (Applied Biosystems, Courtaboeuf, France). Human Cyclophilin A was used as an internal control. The sequences of the PCR primers are indicated in the supplementary table 2.
A general note: Real-time PCR tracks product formation cycle by cycle.

Series [3] has as its system TSP1. Briefly: TSP1 secretion in the culture medium of C4-2 cells (western blotting). The format is cell-based, human. As to conditions: 2 h treatment. How it is done:
FIG. 2B represents TSP1 secretion in the cell culture medium by C4-2 cells treated for 2 h by vehicle (left) or thapsigargin (1 μM) (right). The secreted TSP1 is measured by western blotting in the cell culture medium. FIG. 2D represents TSP1 secretion in the cell culture medium by C4-2 cells treated for 2 h by vehicle or camphor at the indicated doses. The secreted TSP1 is measured by western blotting in the cell culture medium. FIG. 3D represents Western blot detection of TSP1 in the culture medium of C4-2 cells transfected with cont- or TSP1-siRNA 48 h after transfection.
(In general: In western blotting, separated proteins are transferred to a membrane and probed.)

For series [4], the system named is TLR3, TLR7, IL6, IL12b, IFNβ, IFNγ, and IP10. Briefly: Induction of interferon or inflammatory cytokine genes in the spleen of nude mice, real time RT-PCR. The settings on record: five hours after one i.p. injection of 4 mg/kg in PBS.
Protocol: The mRNA level of the indicated genes, normalized to cyclophilin A, was quantified by real time RT-PCR in the spleen.
All the injections were carried out with a dose of 4 mg/kg siRNA diluted in PBS. Five hours after injection, mRNAs coding several genes involved in innate immune response or in inflammation were quantified by quantitative real time RT-PCT.
Series [5] relates to TSP1. Kind of series: TSP1 protein expression in C4-2 cells (indirect immunofluorescence). The format is cell-based, human. The settings on record: for TSP1 protein level: C4-2 cells transfected with siRNA (10 nM), 48 h after transfection. How it is done:
FIG. […]
as §1

For series [6], the system named is C4-2 cells. Briefly: Cell proliferation, metabolic activity assay (WST1). The series is classed as cell-based, human. As to conditions: C4-2 cells transfected with siRNA. The procedure:
as §1
(Tetrazolium assays rely on reduction of a dye to a coloured formazan, in cell work by metabolically active cells.)

Series [7] relates to C4-2 cells. Briefly: Apoptosis, enzymatic activity of caspases 3 and 7. The format is cell-based, human. As to conditions: for effect on apoptosis: C4-2 cells transfected with siRNA; for enzymatic activity of caspases 3 and 7 versus control: C4-2 cells, 48 h after transfection. How it is done: FIG. 1F represents the enzymatic activity of caspases 3 and 7 measured 48 h after transfection of C4-2 cells with the TSP1a- or TSP1b-siRNA.

Series [8] deals with C4-2 cells. Briefly: Intracellular calcium concentration, Fura-2 calcium imaging. The series is classed as cell-based, human. The settings on record: 300 μM. The procedure:
Fluorescence imaging was carried out in Hank's balanced salt solution (HBSS) containing 142 mM NaCl, 5.6 mM KCl, 1 mM MgCl2, 2 mM CaCl2, 0.34 mM Na2HPO4, 0.44 mM KH2PO4, 10 mM HEPES, and 5.6 mM glucose. Cytosolic calcium concentration was measured using Fura-2 loaded cells (2 μM) as previously described (Mariot et al., 2002). The intracellular calcium concentration was derived from the ratio of the fluorescence intensities for each of the excitation wavelengths (F340/F380) and from the Grynkiewicz equation (Grynkiewicz et al., 1985).

The test system of series [9] is TRPV3 mRNA. Kind of series: TRPV3 mRNA level in C4-2 cells, real-time RT-PCR. The series is classed as cell-based, human. As to conditions: 48 h, 300 μM. How it is done: as §1, §2
In series [10] the test system is TSP1. Briefly: TSP1 expression in PC3 cells exposed to CoCl2. The format is cell-based, human. The procedure: FIG. 4G represents the induction of VEGF (grey) and TSP1 (black) mRNA levels normalized to cyclophilin A levels in PC3 cells grown for the indicated periods in cobalt chloride as compared to the respective mRNA levels in control medium at the same time point.
FIG. 4H represents TSP1 immunodetection in PC3 cells grown for 48 h in control conditions (N) or in the presence of 300 μM CoCl2 to mimic hypoxia (H).
as §1

The mark [11] stands for this setting: C4-2 cells transfected with siRNA (10 nM), 2 days after transfection.

Entries after “also recorded” stand apart in the source; their conditions may differ. d = 2'-deoxy (DNA); r = 2'-OH (RNA)

For the compound “CD36: siRNA targeting CD36: UACAGACAGUUUUGGAUCUdTdT / AGAUCCAAAACUGUCUGUAdTdT (chain 1 UACAGACAGUUUUGGAUCUTT; chain 2 AGAUCCAAAACUGUCUGUATT; sugars from the 5' end r19 d2, backbone not given here)”, the “migration of C4-2 cells” value in [1] was “strongly reduced”.

As for `CC12CCC(CC1=O)C2(C)C` (stereo not drawn) [camphor, reference compound], the “TSP1 mRNA level” value in series [2] (C4-2 cells, 6 h treatment) was “dose dependent increase”. For the same compound, in series [3], the “TSP1 secretion into the culture medium” value was “stimulated”.

For Poly (I:C) [reference compound], in series [4], the “induction of TLR3, TLR7, IL6, IL12b, IFNβ, IFNγ, and IP10 mRNA” value is recorded as “significant increase”.

On to “β3: siRNA targeting β3 integrin: GGAGAAUCUGCUGAAGGAUdTdT / AUCCUUCAGCAGAUUCUCCdTdT (chain 1 GGAGAAUCUGCUGAAGGAUTT; chain 2 AUCCUUCAGCAGAUUCUCCTT; sugars from the 5' end r19 d2, backbone not given here)”, for which the “migration of C4-2 cells” value in [1] is on record as “strongly reduced”.

“TRPV6: siRNA targeting TRPV6: GGAAGACAGGCAAGAUCUCdTdT / GAGAUCUUGCCUGUCUUCCdTdT (chain 1 GGAAGACAGGCAAGAUCUCTT; chain 2 GAGAUCUUGCCUGUCUUCCTT; sugars from the 5' end r19 d2, backbone not given here)”: the “TSP1 mRNA level” value in series [2] (setting [11]) is given as “reduced”.

“TRPV2: siRNA targeting TRPV2: UAAGAGUCAACCUCAACUAdTdT / UAGUUGAGGUUGACUCUUAdTdT (chain 1 UAAGAGUCAACCUCAACUATT; chain 2 UAGUUGAGGUUGACUCUUATT; sugars from the 5' end r19 d2, backbone not given here)”: the “TSP1 mRNA level” value in series [2] (setting [11]) is “reduced”.

“TSP1b-siRNA: Duplex UACCCGAGACGAUUGUAUGdTdT / CAUACAAUCGUCUCGGGUAdTdT targeting specifically the human TSP1 mRNA (sense UACCCGAGACGAUUGUAUGTT; antisense CAUACAAUCGUCUCGGGUATT; sugars from the 5' end r19 d2, backbone not given here)”: the “TSP1 mRNA level” value in [2] (setting [11]) is “significantly reduces”. In addition, the TSP1 protein level result in [5] is listed as “significantly reduces”. Also, in series [6], the “effect on cell proliferation” value is given as “no effect; also recorded: without affecting”. Besides, in series [7], the effect on apoptosis result was “no effect”; the “enzymatic activity of caspases 3 and 7 versus control” value is “not statistically different”.

As for `[Cl][Co][Cl]` [cobalt chloride], the “TSP1 mRNA level” value in series [2] (C4-2 cells, 48 h, 300 μM) is “strongly induced”. The “intracellular calcium concentration, resting level” value is reported as “increased over two fold” in series [8] (48 h) and “not modified” in series [8] (after 30 min). Moreover, the “TRPV3 mRNA level” value in series [9] was “strongly induced”. For the same compound, the “TSP1 expression at the mRNA level” value in series [10] is on record as “induced”. In addition, the “TSP1 expression at the protein level” value in [10] (48 h, 300 μM) is listed as “induced”.

Turning to `C/C=C(/C)C(=O)O[C@H]1C(C)=C2[C@H]([C@@H]1OC(=O)CCCCCCC)[C@@](C)(OC(C)=O)C[C@H](OC(=O)CCC)[C@@]1(O)[C@H]2OC(=O)[C@@]1(C)O` [thapsigargin, reference compound], in series [5] (C4-2 cells, 2 h treatment, 1 μM), the “TSP1 in the cytosol” value is “rapid depletion”.

Take “TSP1a-siRNA: Duplex CCUUGACAACAACGUGGUGdTdT / CACCACGUUGUUGUCAAGGdTdT targeting TSP1 mRNA, sequence conserved between human and mouse (sense CCUUGACAACAACGUGGUGTT; antisense CACCACGUUGUUGUCAAGGTT; sugars from the 5' end r19 d2, backbone not given here)”: the “TSP1 mRNA level” value in series [2] (setting [11]) is reported as “significantly reduces”. Besides, in series [5], the TSP1 protein level result was “significantly reduces”. Further, the “effect on cell proliferation” value in series [6] was “no effect; also recorded: without affecting”. Moreover, in series [7], the effect on apoptosis entry is reported as “no effect”; the “enzymatic activity of caspases 3 and 7 versus control” value is on record as “not statistically different”.
